Consider 2 molecules from US8063101B2, “Carotenoid analogs and derivatives for the prevention of platelet aggregation” (Cardax Pharmaceuticals, Inc., priority 2007, dated 2011).

The conditions of data set [1]: rat, in vivo. On the procedure:
In a another experiment, all-trans 3S,3′S-astaxanthin diester diglycinate dihydrochloride salt (hereinafter “ADG”); all-trans 3S,3′S-astaxanthin diester disarcosinate dihydrochloride salt (hereinafter “ADSa”); and ADL were administered orally to separate rats as a aqueous suspension containing 0.5% carboxymethylcellulose. A single dose that included 40 mg/kg of the carotenoid derivative was administered to each rat. (See FIG. 20, PK Study #CXPK07202). For each carotenoid derivative given to the rats in this example, the amount of all astaxanthin isomers, the amount of trans astaxanthin isomers, and the amount of cis astaxanthin isomers in the plasma was determined at predefined time intervals for 3 days (72 hours).
In another experiment, ADG; ADSa; and ADL were administered to separate rats intravenously as an aqueous solution. A single dose that included 5 mg/kg of the carotenoid derivative was administered to each rat. (See FIG. 20, PK Study #CXPK07202). For each carotenoid derivative given to the rats in this example, the amount of all astaxanthin isomers, the amount of trans astaxanthin isomers, and the amount of cis astaxanthin isomers in the plasma was determined at predefined time intervals for 3 days (72 hours).

A short description of data set [2]: Dog PK of astaxanthin derivatives (CXPK07402, 07404, 07405, 07406). The following applies: dog, in vivo, po, 20 mg/kg. On the procedure: In another experiment, ADL was administered to non-naïve beagle dogs orally (as an aqueous suspension containing 0.5% carboxymethylcellulose) and intravenously as an aqueous solution. Oral doses that included 10 mg/kg of the carotenoid derivative, 100 mg/kg of the carotenoid derivative, and 500 mg/kg of the carotenoid derivative were administered to each dog. The intravenous dosage was 5 mg/kg. (See FIG. 20, PK Study #CXPK07402). For each carotenoid derivative given to the dogs in this example, the amount of all astaxanthin isomers, the amount of trans astaxanthin isomers, and the amount of cis astaxanthin isomers in the plasma was determined at predefined time intervals for 3 days (72 hours).
In another experiment, ADL was administered to naïve beagle dogs orally (as an aqueous suspension containing 0.5% carboxymethylcellulose) twice a day for six days. Each oral dose included 75 mg/kg of the carotenoid derivative. (See FIG. 20, PK Study #CXPK07404). For each carotenoid derivative given to the dogs in this example, the amount of all astaxanthin isomers, the amount of trans astaxanthin isomers, and the amount of cis astaxanthin isomers in the plasma was determined at predefined time intervals for 6 days.
In another experiment, all-trans 3S,3′ S-astaxanthin diester di-beta-alanine dihydrochloride salt (hereinafter “ADA”); ADG; ADL; ADSa; and ADS were administered orally to separate non-naïve dogs as a aqueous suspension containing 0.5% carboxymethylcellulose. A single dose that included 20 mg/kg of the carotenoid derivative was administered to each dog. (See FIG. 20, PK Study #CXPK07405). For each carotenoid derivative given to the dogs in this example, the amount of all astaxanthin isomers was determined at predefined time intervals for 3 days (72 hours).
In another experiment, ADG or ADSa was administered to non-naïve beagle dogs orally (as an aqueous suspension containing 0.5% carboxymethylcellulose). Oral doses included either 50 mg/kg of the carotenoid derivative or 100 mg/kg of the carotenoid derivative. (See FIG. 20, PK Study #CXPK07406). For each carotenoid derivative given to the dogs in this example, the amount of all astaxanthin isomers, the amount of trans astaxanthin isomers, and the amount of cis astaxanthin isomers in the plasma was determined at predefined time intervals for 3 days (72 hours).

The nature of data set [3]: Monkey PK oral and intravenous (CXPK07502). The data set is classed as in vivo. The conditions noted are these: monkeys; oral 10, 300, 500 mg/kg and intravenous 5 mg/kg.
The subject of another data set is vascular platelets. The data set is described as follows: Platelet-derived nitric oxide (NO) release after IP3 stimulation, NO nanosensor. It is filed as cell-based, Wistar-Kyoto (WKY) rats. On the procedure: Wistar-Kyoto (WKY) rats were anaesthetized and blood was collected directly from the heart using a 10 mL syringe that contained 3.8% sodium citrate (9:1, v v^−1). […] The platelet rich plasma (PRP) was then removed by aspiration. […] The number of platelets was counted and adjusted to 3.5×10^8 per mL with Tyrode-HEPES buffer. The platelets were incubated in an aggregometer with a NO nanosensor (working electrode) placed in the platelet suspension. […] All measurements of NO release were conducted in Hank's balanced salt solution (HBSS) at 37° C. The sensor operated with a three-electrode system: nanosensor (working electrode), saturated calomel electrode (reference electrode), and platinum wire (counter electrode, 0.5 mm diameter). The three electrodes were connected to a potentiostat/galvanostat PAR273. The baseline was stabilized after ˜20 s. With a nanoinjector, the test compounds were injected onto the surface of the cells following solubilization in buffer. In experiments with multiple compounds, the compounds were injected simultaneously. […] Data were acquired with the use of custom software. Amperograms (current vs. time curves) were recorded with a Guniry FAS1 Femtostat (Warminster, Pa.). The nanosensor for NO was calibrated using saturated solution (concentration 1.82 mM verified with the coulometric method). […] The data were presented as mean±S.D. for each of the triplicate measurements. The data (calculation and plotting) were transferred to Microcal Origin Software (OriginLab Corp., Northampton, Mass.). […] The NO concentration was calculated using current responses obtained from standard NO solution (prepared from […] stock solution, saturated aqueous NO solution).

Data set [4] relates to platelets. The data set can be described thus: Platelet-derived peroxynitrite release after IP3 stimulation. The following applies: IP3 1.0 μM. The data set is classed as cell-based. From the text: Values are reported as mean±S.D. (N=5). *p<0.001 and †p<0.05 versus control; §p<0.001 versus aspirin treatment (ANOVA Student-Newman-Keuls multiple comparisons test; overall ANOVA: p<0.0001; F=52.475). […] Values are reported as mean±S.D. (N=5). *p<0.001 versus control and †p<0.001 versus aspirin alone (ANOVA Student-Newman-Keuls multiple comparisons test; overall ANOVA: p<0.0001; F=21.905). Abbreviations: Astax=Astaxanthin. […] Values are reported as mean±S.D. (N=5). *p<0.05 and **p<0.001 versus control; †p<0.05 and ‡p<0.001 versus simvastatin alone (ANOVA Student-Newman-Keuls multiple comparisons test; overall ANOVA: p<0.0001; F=13.716). Abbreviations: Astax=Astaxanthin; Simva=Simvastatin.

Data set [5] deals with platelets. The data set is described as follows: Platelet nitric oxide/peroxynitrite release ratio after IP3 stimulation. The conditions noted are these: astaxanthin combined with aspirin 1.0 μM; IP3 1.0 μM. It is filed as cell-based. From the text:
Values are reported as mean±S.D. (N=5). *p<0.05 and **p<0.001 versus control; †p<0.01 and ‡p<0.001 versus aspirin alone (ANOVA Student-Newman-Keuls multiple comparisons test; overall ANOVA: p<0.0001; F=129.98). Abbreviations: Astax=Astaxanthin. […] Values are reported as mean±S.D. (N=5). *p<0.05 and **p<0.001 versus control; †p<0.001 versus simvastatin alone (ANOVA Student-Newman-Keuls multiple comparisons test; overall ANOVA: p<0.0001; F=84.477). Abbreviations: Astax=Astaxanthin; Simva=Simvastatin. […] Values are reported as mean±S.D. (N=5). *p<0.05 and †p<0.001 versus control; §p<0.001 versus astaxanthin treatment (ANOVA Student-Newman-Keuls multiple comparisons test; overall ANOVA: p<0.0001; F=40.020).

The test system of data set [6] is human umbilical vein endothelial cells (HUVEC). The data set is described as follows: Calcium ionophore (CaI)-stimulated total nitric oxide release from HUVEC. It is filed as cell-based. The conditions noted are these: 3S,3′S-AST 5.0 μM, clopidogrel 1.0 μM, alone or in combination; FIG. 5. How it is done: (§1) Human umbilical vein endothelial cells (HUVECs) were isolated into primary cultures from white female donors by Clonetics (San Diego, Calif.), essentially as described (Mason et al. 2005). All donors were reported to be healthy and none had pregnancy or prenatal complications. All measurements were recorded in vitro using a sensitive porphyrinic probe, also as previously described. HUVEC cells were grown in Ham's F12K medium with 2 mM L-glutamine adjusted to contain 1.5 g/L sodium bicarbonate and supplemented with 0.1 mg/mL heparin and 0.03-0.05 mg/mL endothelial cell growth supplement (ECGS) plus 10% fetal bovine serum. The HUVEC cells were kept in an atmosphere of elevated CO2 concentration (5%).
All measurements of NO release were conducted in Hank's balanced salt solution (HBSS) at 37° C. The sensor operated with a three-electrode system: nanosensor (working electrode), saturated calomel electrode (reference electrode), and platinum wire (counter electrode, 0.5 mm diameter). The three electrodes were connected to a potentiostat/galvanostat PAR273. […] The current (amps) proportional to the NO concentration was measured with the sensor, which operated in amperometric mode at a constant potential of 0.63 V. Data were acquired with the use of custom software. Amperograms (current vs. time curves) were recorded with a Guniry FAS1 Femtostat (Warminster, Pa.).

The test system is the same in data set [7]. The data set can be described thus: Calcium ionophore (CaI)-stimulated total peroxynitrite release from HUVEC. It is filed as cell-based. The following applies: 3S,3′S-AST 5.0 μM, clopidogrel 1.0 μM, alone or in combination; FIG. 6. On the procedure:
as §1

For data set [8] the test system is unchanged. The data set can be described thus: CaI-stimulated NO/OONO- release ratio from HUVEC. It is filed as cell-based. The conditions noted are these: 3S,3′S-AST 5.0 μM, clopidogrel 1.0 μM, alone or in combination; FIG. 7. On the procedure: as §1
Details of data set [9]: species or system rats. The conditions noted are these: in vivo, po, 500 mg/kg. How it is done:
In one experiment, astaxanthin; all-trans 3S,3'S-astaxanthin diester disuccinate disodium salt (hereinafter “ADS”); and all-trans 3S,3'S-astaxanthin diester […] tetrahydrochloride salt (hereinafter “ADL”) were administered orally to separate rats as a lipid suspension. A single dose that included 500 mg/kg of the carotenoid/carotenoid derivative was administered to each rat. (See FIG. 20, PK Study #CXPK07201). Plasma from each of the rats was collected 4 hours after ingestion and 8 hours after ingestion and all samples were analyzed by high performance liquid chromatography (“HPLC”). HPLC analysis was used to detect the presence of free underivatized carotenoid (e.g., in this example, astaxanthin) in the plasma. HPLC chromatograms were collected for each plasma sample taken.

[10] abbreviates: astaxanthin combined with aspirin 1.0 μM, IP3 1.0 μM, FIG. 14.

Where two headings read alike, the source gives them in different places.

Turning to `CNCC(=O)O[C@H]1CC(C)(C)C(/C=C/C(C)=C/C=C/C(C)=C/C=C/C=C(C)/C=C/C=C(C)/C=C/C2=C(C)C(=O)[C@@H](OC(=O)CNC)CC2(C)C)=C(C)C1=O.Cl.Cl` (relative stereo) [ADSa, all-trans 3S,3′S-astaxanthin diester disarcosinate dihydrochloride salt], the “absorption and metabolism to astaxanthin in plasma” value in data set [1] (iv, 5 mg/kg) is “absorbed by the rats and metabolized”; in [1] (po, 40 mg/kg), “absorbed by the rats and metabolized”; in data set [2], “absorbed by the dogs and metabolized”; in data set [3], “absorbed by the monkeys and metabolized”.
On to `CC1=C(/C=C/C(C)=C/C=C/C(C)=C/C=C/C=C(C)/C=C/C=C(C)/C=C/C2=C(C)C(=O)[C@@H](O)CC2(C)C)C(C)(C)C[C@H](O)C1=O` [homochiral astaxanthin, astaxanthin], for which the “sustained production of NO with time (amperogram)” value in the data set on vascular platelets (IP3-stimulated, 3S,3′S-AST 5.0 μM alone or with clopidogrel 1.0 μM, FIG. 4) worked out at 13 s. Moreover, the “mean increase in capacity to generate bioavailable NO vs. controls” value with vascular platelets (IP3 stimulation, homochiral astaxanthin 5.0 μM alone) is listed as “two-fold”. Besides, the “increase in platelet NO generation/release vs. mean control levels” value in the data set with vascular platelets (IP3 stimulation, homochiral astaxanthin 5 μM, clopidogrel 1 μM, each as monotherapy) was about 100%. Further, the “total NO release from vascular platelets” value with vascular platelets (IP3 stimulation, homochiral astaxanthin 5.0 μM, clopidogrel 1.0 μM, controls 6.6±0.3, mean±S.D.) is 12.9±0.3 molecules NO×10^6/platelet. In the data set with vascular platelets (setting [10]), the “increase in NO release over untreated samples” value was found to be 3 fold and the “potentiation of the NO release observed by aspirin alone” value was 80%. The “effect of astaxanthin on simvastatin's platelet-derived NO release” value with vascular platelets (increasing astaxanthin with simvastatin 1.0 μM, IP3 1.0 μM) is given as “enhanced the effect of simvastatin on platelet-derived NO release in a dose-dependent fashion”. The “effect on platelet ONOO— release” value in the data set with platelets [4] (compound alone at 1.0 μM, FIG. 12) was “decreased”. Moreover, the “effect of astaxanthin on aspirin-induced ONOO— release” value with platelets [4] (increasing astaxanthin with aspirin 1.0 μM, FIG. 13) is given as “reverse the effect of aspirin on ONOO— release in a dose-dependent manner”. Also, the “NOS coupling efficiency (ratio of NO/ONOO—), increase over control levels as well as aspirin alone” value in the data set with platelets [5] is listed as “approximately three-fold”. The “effect on CaI-stimulated total nitric oxide release from HUVEC” value in data set [6] is reported as “Statistically significant increases”. Also, the “effect on CaI-stimulated total peroxynitrite (OONO−) release from HUVEC” value in [7] was “Statistically significant decreases”. The “effect on CaI-stimulated NO/OONO− release ratio from HUVEC” value in data set [8] is given as “Statistically significant increases”. In addition, the “free astaxanthin in rat plasma” value in data set [9] is on record as “no significant amount”.
